Several values for one entry are separate records, joined by “and”; a condition that tells them apart may be missing. Equal entries are not always repeated.
Experiments:
Genome polyprotein [1] = target: T1, Genome polyprotein (dengue virus type 2, UniProt P29990); format: functional, Thailand/16681/1984
Genome polyprotein [2] = target: T1, Genome polyprotein; format: functional, Thailand/16681/1984; remark: listed apart in the source

T1 sequence (P29990 1346-1475 limits assumed): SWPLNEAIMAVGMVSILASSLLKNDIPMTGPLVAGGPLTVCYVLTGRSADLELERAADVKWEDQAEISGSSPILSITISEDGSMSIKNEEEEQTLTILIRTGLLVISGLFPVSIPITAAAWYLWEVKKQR
T1 sequence (P29990 1476-2093 limits assumed): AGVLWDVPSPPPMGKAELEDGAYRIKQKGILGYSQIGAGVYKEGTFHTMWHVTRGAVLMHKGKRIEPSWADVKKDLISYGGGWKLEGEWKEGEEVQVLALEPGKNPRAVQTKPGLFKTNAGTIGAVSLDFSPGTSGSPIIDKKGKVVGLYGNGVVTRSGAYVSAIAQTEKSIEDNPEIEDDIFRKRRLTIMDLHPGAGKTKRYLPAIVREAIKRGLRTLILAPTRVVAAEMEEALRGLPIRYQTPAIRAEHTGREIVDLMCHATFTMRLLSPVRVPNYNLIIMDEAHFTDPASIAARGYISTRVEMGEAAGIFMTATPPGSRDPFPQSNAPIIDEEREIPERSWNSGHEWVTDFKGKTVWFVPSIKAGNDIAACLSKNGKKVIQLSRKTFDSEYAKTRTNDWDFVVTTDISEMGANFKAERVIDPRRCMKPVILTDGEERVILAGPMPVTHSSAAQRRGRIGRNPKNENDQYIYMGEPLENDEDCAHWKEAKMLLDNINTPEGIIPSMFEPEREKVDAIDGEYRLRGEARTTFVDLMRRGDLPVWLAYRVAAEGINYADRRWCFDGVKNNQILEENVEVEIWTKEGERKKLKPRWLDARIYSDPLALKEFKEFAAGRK

| SMILES | IC50 (Genome polyprotein [1]) | IC50 (Genome polyprotein [2]) |
| --- | --- | --- |
| O=C(Nc1ccc2c(c1)CNC2)c1ccc2[nH]ncc2c1 | > 100 µM | > 99.5 µM |
| O=C(Nc1ccc2c(c1)CNC2)c1cccc2[nH]c(C(F)(F)F)cc12 | > 100 µM | 91.7 µM |
| O=C(Nc1ccc2c(c1)CNC2)c1cc(Cl)cc2[nH]c(-c3ccnn3C3CC3)nc12 | > 100 µM | 25.2 µM |
| CN1Cc2cc(NC(=O)c3cc(Cl)cc4[nH]ncc34)ccc2C1(C)C | > 100 µM | > 99.5 µM |
| O=C(Nc1ccc2nc[nH]c2c1)c1cc(F)cc2[nH]ncc12 | > 100 µM | > 99.5 µM |
| COc1nn(C)cc1-c1nc2c(C(=O)Nc3ccc4c(c3)CNC4)cc(Cl)cc2[nH]1 | > 100 µM | > 99.5 µM |
| CC(C)CCN1Cc2ccc(NC(=O)c3cc(Cl)cc4[nH]ncc34)cc2C1 | > 100 µM | > 99.5 µM |
| C=CC[C@H]1NCc2cc(NC(=O)c3cccc4c3CC(=O)N4)ccc21 | > 100 µM | > 99.5 µM |
| COc1ccc2[nH]cnc2c1S(=O)(=O)Nc1ccc2c(c1)CNC2 | > 100 µM | > 99.5 µM |
| O=C(Nc1ccc2c(c1)CNC2)c1ccc2c(c1)CCC2 | > 100 µM | > 99.5 µM |
| O=C(Nc1ccc2c(c1)C(=O)OC2)c1cc(CC2CCNCC2)ccc1F | > 100 µM | > 99.5 µM |
| Clc1cc([C@@H]2C[C@H]2c2cccc(C3CCNCC3)c2)c2cn[nH]c2c1 | 9.27 µM and 13.3 µM | 7.93 µM and 6.82 µM and 6.33 µM |
| O=C1OCc2ccc(NC(=O)c3cccc4c3CNC4)cc21 | > 100 µM | > 99.5 µM |
| NCc1ccccc1C(=O)Nc1ccc2c(c1)C(=O)OC2 | > 100 µM | > 99.5 µM |
| O=C1OCc2ccc(NC(=O)[C@H]3CNC4(CCCC4)C3)cc21 | > 100 µM | > 99.5 µM |
| O=C(Nc1ccc2c(c1)CNC2)c1cc(F)cc2[nH]cnc12 | > 100 µM | 99 µM |
| O=C(Nc1ccc2c(c1)CNC2)c1nc(C(F)(F)F)cs1 | > 100 µM | > 99.5 µM |
| O=C(Nc1ccc2c(c1)CNC2)c1cc(Cl)cc2[nH]c(-c3c[nH]c(=O)c(Br)c3)nc12 | 13.7 µM | 12.5 µM |
| Cn1cc2c(C(=O)Nc3ccc4c(c3)CNC4)cc(F)cc2n1 | > 100 µM | > 99.5 µM |
| O=C(Nc1ccc2c(c1)CNC2)c1cc(Br)cc2[nH]c([C@H]3CCCO3)nc12 | > 100 µM | > 99.5 µM |
| CN1C(=O)Cc2cc(C(=O)Nc3ccc4c(c3)CNC4)ccc21 | > 100 µM | > 99.5 µM |
| C=CC[C@H]1NCc2cc(NC(=O)c3cc(Cl)cc4[nH]ncc34)ccc21 | > 100 µM | > 99.5 µM |

| SMILES | IC50 (Genome polyprotein [1]) | IC50 (Genome polyprotein [2]) |
| --- | --- | --- |
| O=C(Nc1ccc2c(c1)CNC2)c1cccc2c1OCCN2 | > 100 µM | > 99.5 µM |
| C[C@](N)(C(=O)Nc1ccc2c(c1)C(=O)OC2)c1cccs1 | > 100 µM | > 99.5 µM |
| CC1(C)C(=O)N[C@H]2CCCN(C(=O)Nc3ccc4c(c3)CNC4)[C@H]21 | > 100 µM | > 99.5 µM |
| O=C1C[C@H]2[C@H](CCCN2C(=O)Nc2ccc3c(c2)CNC3)N1 | 75.5 µM and 46.1 µM and > 100 µM (2×) | > 99.5 µM |
| O=C(Nc1ccc2c(c1)S(=O)(=O)NC2)c1cc(Cl)cc2[nH]ncc12 | > 100 µM | > 99.5 µM |
| O=C(Nc1ccc2c(c1)CNC2)N1CC[C@H](Oc2ccc(C3CC3)cn2)C1 | > 100 µM | > 99.5 µM |
| CCc1ccc(-c2nc3c(C(=O)Nc4ccc5c(c4)CNC5)cc(Cl)cc3[nH]2)cc1 | 42.9 µM | 21.5 µM |
| O=C(Nc1ccc2c(c1)CNC2)N1CCC[C@H]1c1nc2ncccc2[nH]1 | > 100 µM | > 99.5 µM |
| O=C1NS(=O)(=O)c2ccc(NC(=O)c3cc(Cl)cc4[nH]ncc34)cc21 | > 100 µM | > 99.5 µM |
| CC(C)(C)c1nc2c(C(=O)Nc3ccc4c(c3)CNC4)cc(Br)cc2[nH]1 | > 100 µM | 39 µM |
| O=C(Nc1ccc2c(c1)CNC2)N1CCC[C@@H]1COCc1ccccc1 | > 100 µM | > 99.5 µM |
| CNC(=O)c1cccc(C(=O)Nc2ccc3c(c2)CNC3)c1 | > 100 µM | > 99.5 µM |
| C#C[C@H](Nc1ccc2c(c1)CNC2)c1cccc2[nH]c(=O)[nH]c12 | > 100 µM | > 99.5 µM |
| CCOCC1(c2nc3c(C(=O)Nc4ccc5c(c4)CNC5)cc(Cl)cc3[nH]2)CC1 | > 100 µM | 87.5 µM |
| O=C(Nc1ccc2c(c1)CNC2)c1cc(Cl)cc2cc[nH]c12 | > 100 µM | > 99.5 µM |
| O=C(Nc1ccc2c(c1)C(=O)OC2)c1cccc(CC2CNC2)c1 | > 100 µM | > 99.5 µM |
| C=CC[C@H]1NCc2cc(NC(=O)c3cc(F)cc4[nH]ncc34)ccc21 | 39 µM | 72.9 µM |
| O=C(Nc1ccc2c(c1)CNC2)c1cccc2[nH]ccc12 | > 100 µM | > 99.5 µM |
| O=C(Nc1cc([C@H]2CCOC2)ccn1)c1ccc2ncsc2c1 | > 100 µM | > 99.5 µM |
| O=C1Cc2c(cc(F)cc2C(=O)Nc2ccc3c(c2)CNC3)N1 | 30 µM and 25.6 µM and 21 µM | 32.8 µM |
| CC(C)NC(=O)[C@H](Nc1ccc2c(c1)CNC2)c1cc(F)cc2[nH]ncc12 | > 100 µM | > 99.5 µM |
| O=C(Nc1ccc2[nH]c(=O)[nH]c2c1)c1cc(F)cc2[nH]ncc12 | > 100 µM | > 99.5 µM |

| SMILES | IC50 (Genome polyprotein [1]) | IC50 (Genome polyprotein [2]) |
| --- | --- | --- |
| O=C(Nc1ccc2c(c1)CNC2)c1cc(Cl)ccc1-n1cnnn1 | > 100 µM | > 99.5 µM |
| CN(C)C(=O)N1Cc2ccc(NC(=O)c3cc(Cl)cc4[nH]ncc34)cc2C1 | > 100 µM | > 99.5 µM |
| O=C1OCc2ccc(NC(=O)[C@H]3CNCc4[nH]ncc43)cc21 | > 100 µM | > 99.5 µM |
| Cn1c(=O)[nH]c2c(C(=O)Nc3ccc4c(c3)CNC4)cc(Br)cc21 | 42.8 µM and 34.9 µM | > 99.5 µM |
| O=C(Nc1ccc2c(c1)CNC2)c1cc(Cl)cc2[nH]c(-c3cc(C4CC4)[nH]n3)nc12 | > 100 µM | 7.32 µM and 5.15 µM |
| N#C[C@H](Nc1ccc2c(c1)CNC2)c1cccc2ncccc12 | > 100 µM | > 99.5 µM |
| O=C(Nc1ccc2c(c1)CNC2)c1cc(F)cc2c1CCC2 | > 100 µM | > 99.5 µM |
| CC(C)Nc1c(-c2cc(Cl)cc3[nH]ncc23)nc2ccc3c(n12)CNC3 | > 100 µM | > 99.5 µM |
| O=C(Nc1ccc2c(c1)CNC2)c1cc(Cl)cc2[nH]c(CCc3cccnc3)nc12 | > 100 µM | 44.7 µM |
| NC[C@H]1CC[C@@H](NC(=O)c2cc(Cl)cc3[nH]ncc23)CC1 | > 100 µM | > 99.5 µM |
| CC1(C)C[C@H](C(=O)Nc2ccc3c(c2)C(=O)OC3)CCN1 | > 100 µM | > 99.5 µM |
| O=C(Nc1ccc2c(c1)CNC2)c1cccc2nc(O)ccc12 | 47.3 µM and 4.98 µM | > 99.5 µM |
| Cc1nc2ccc(C(=O)Nc3ccc4c(c3)CNC4)cc2s1 | > 100 µM | > 99.5 µM |
| COCc1cc(Cl)cc(C(=O)Nc2ccc3c(c2)CNC3)c1 | > 100 µM | > 99.5 µM |
| NCc1cc(CC(=O)O)cc([C@H]2C[C@@H]2c2cc(Cl)cc(NC(=O)OCc3ccccc3)c2)c1 | > 100 µM | > 99.5 µM |
| CN(C)C(=O)CCCc1nc2c(C(=O)Nc3ccc4c(c3)CNC4)cc(Cl)cc2[nH]1 | > 100 µM | > 99.5 µM |
| O=C(Nc1ccc2c(c1)CNC2)c1nc(-c2ccccc2)cs1 | > 100 µM | > 99.5 µM |
| O=C1Cc2ccc(NC(=O)c3cc(F)cc4[nH]ncc34)cc2N1 | > 100 µM | > 99.5 µM |
| O=C(Nc1ccc2c(c1)CNC2)c1cc(Cl)cc(N2CCCC2=O)c1 | > 100 µM | > 99.5 µM |
| COc1cc(Cl)cc(C(=O)Nc2ccc3c(c2)CNC3)c1 | > 100 µM | > 99.5 µM |
| O=C1Cc2cc(C(=O)Nc3ccc4c(c3)CNC4)ccc2N1 | > 100 µM | 9.95 µM and 7.04 µM and 6.09 µM |
| CC(=O)N1Cc2ccc(NC(=O)c3cc(Cl)cc4[nH]ncc34)cc2C1 | > 100 µM | > 99.5 µM |

| SMILES | IC50 (Genome polyprotein [1]) | IC50 (Genome polyprotein [2]) |
| --- | --- | --- |
| COc1ncc(Cl)cc1C(=O)Nc1ccc2c(c1)CNC2 | > 100 µM | > 99.5 µM |
| NCCC1(C(=O)Nc2ccc3c(c2)C(=O)OC3)CCCC1 | > 100 µM | > 99.5 µM |
| O=C(Nc1nc(O)c2c(n1)CNC2)c1cc(Cl)cc2[nH]ncc12 | > 100 µM | > 99.5 µM |
| Clc1cccc([C@H](C#Cc2ccccc2)Nc2ccc3c(c2)CNC3)c1 | > 100 µM | > 99.5 µM |
| O=C(Nc1ccc2c(c1)CNC2)c1cc(F)cc2[nH]c(-c3ccccc3)nc12 | 5.75 µM | 7.96 µM and 7.05 µM |
| O=C1CCCc2cc(C(=O)Nc3ccc4c(c3)CNC4)ccc2N1 | > 100 µM | > 99.5 µM |
| O=C(Nc1ccc2c(c1)CNC2)c1cc(Cl)cc2nn(-c3ccccc3)nc12 | 12.9 µM | 7.45 µM and 8.05 µM and 6.62 µM |
| CCC[C@H](C)N1Cc2ccc(NC(=O)c3cc(Cl)cc4[nH]ncc34)cc2C1 | > 100 µM | > 99.5 µM |
| O=C(Nc1ccc2c(c1)CNC2)c1cccc2cn[nH]c12 | > 100 µM | > 99.5 µM and 55.6 µM |
| CO[C@]1(C(=O)Nc2ccc3c(c2)C(=O)OC3)CCCNC1 | > 100 µM | > 99.5 µM |
| O=C(Nc1cc2c(cc1Br)CNC2)c1cc(F)cc2[nH]ncc12 | 58 µM | 67 µM |
| C[C@](C#N)(Nc1ccc2c(c1)CNC2)c1cccc(Cl)c1 | > 100 µM | > 99.5 µM |
| C#Cc1cc(Cl)cc(C(=O)Nc2ccc3c(c2)CNC3)c1 | > 100 µM | > 99.5 µM |
| O=C1Cc2c(cc(Br)cc2C(=O)Nc2ccc3c(c2)C(=O)OC3)N1 | > 100 µM | > 99.5 µM |
| O=C(Nc1ccc2c(c1)CNC2)c1cc(Cl)cc2ccccc12 | > 100 µM | > 99.5 µM |
| O=C1CN(C(=O)Nc2ccc3c(c2)CNC3)[C@H]2CCCC[C@H]2N1 | > 100 µM | > 99.5 µM |
| O=C(Nc1ccc2c(c1)CNC2)N1CCC[C@H]1Cc1cc2ccccc2o1 | > 100 µM | > 99.5 µM |
| O=C(Nc1ccc2c(c1)CNC2)c1cc(Cl)cc2[nH]c(-c3cnc(C4CC4)o3)nc12 | 19.4 µM | 58.7 µM |
| O=C(Nc1ccc2c(c1)CNC2)c1cc(Cl)cc(N2CCCC2)c1 | > 100 µM | > 99.5 µM |
| CC(=O)Nc1cccc(C(=O)Nc2ccc3c(c2)CNC3)c1 | > 100 µM | > 99.5 µM |
